Each block holds one molecule with its values, some of them ahead of it.
Key:
[1] = test system: CC mismatched DNA (ITC) (DNA, mismatch bulge abasic) GCGCCGTCGTCCATGTG/CACATGCACGACGGCGC; assay: ITC
[2] = test system: matched DNA (ITC) (DNA, duplex) GCGCCGTCGTCCATGTG/CACATGGACGACGGCGC; assay: ITC
[3] = test system: hairpin DNA oligomer with a CC mismatch (DNA, mismatch bulge abasic) GGCAGGCATGGCTTTTTGCCATCCCTGCC; assay: emission titration
[4] = test system: hairpin matched DNA (DNA, hairpin) GGCAGGCATGGCTTTTTGCCATGCCTGCC; assay: emission titration
[5] = test system: DNA without an abasic site (melting temperature experiment) (DNA, duplex) GACCAGCTTATCATCCCTAGATAAGCG/CGCTTATCTAGGGATGATAAGCTGGTC; assay: melting temperature; conditions: Tm stated not affected
[6] = test system: 27-mer abasic dsDNA AP_C (DNA, mismatch bulge abasic, abasic at 13 of strand 2) GACCAGCTTATCATCCCTAGATAAGCG/CGCTTATCTAGGNATGATAAGCTGGTC; assay: emission titration; conditions: 50 mM NaCl; 2 mM Tris, pH 7.5; 5 μM 1c; 32.2-fold emission increase
[7] = test system: 27-mer abasic dsDNA AP_A (DNA, mismatch bulge abasic, abasic at 13 of strand 2) GACCAGCTTATCATACCTAGATAAGCG/CGCTTATCTAGGNATGATAAGCTGGTC; assay: emission titration; conditions: 50 mM NaCl; 2 mM Tris, pH 7.5; 5 μM 1c; 14.8-fold emission increase
[8] = test system: 27-mer abasic dsDNA AP_T (DNA, mismatch bulge abasic, abasic at 13 of strand 2) GACCAGCTTATCATTCCTAGATAAGCG/CGCTTATCTAGGNATGATAAGCTGGTC; assay: emission titration; conditions: 50 mM NaCl; 2 mM Tris, pH 7.5; 5 μM 1c; 21.1-fold emission increase
[9] = test system: 27-mer abasic dsDNA AP_G (DNA, mismatch bulge abasic, abasic at 13 of strand 2) GACCAGCTTATCATGCCTAGATAAGCG/CGCTTATCTAGGNATGATAAGCTGGTC; assay: emission titration; conditions: 50 mM NaCl; 2 mM Tris, pH 7.5; 5 μM 1c; 14.4-fold emission increase
[10] = test system: normal (matched) 27-mer dsDNA (DNA, duplex) GACCAGCTTATCATCCCTAGATAAGCG/CGCTTATCTAGGGATGATAAGCTGGTC; assay: emission titration; conditions: 50 mM NaCl; 2 mM Tris, pH 7.5; 5 μM 1c; 4.7-fold emission increase
[11] = test system: 27-mer dsDNA with CC mismatch (DNA, mismatch bulge abasic) GACCAGCTTATCATCCCTAGATAAGCG/CGCTTATCTAGGCATGATAAGCTGGTC; assay: emission titration; conditions: 50 mM NaCl; 2 mM Tris, pH 7.5; 5 μM 1c; comparison DNA of abasic titration
[12] = test system: CC mismatched 17-mer dsDNA (DNA, mismatch bulge abasic) GCGCCGTCGTCCATGTG/CACATGCACGACGGCGC; assay: emission titration; conditions: 50 mM NaCl; 2 mM Tris, pH 7.5; 27.5-fold emission increase
[13] = test system: matched 17-mer dsDNA (DNA, duplex) GCGCCGTCGTCCATGTG/CACATGGACGACGGCGC; assay: emission titration; conditions: 50 mM NaCl; 2 mM Tris, pH 7.5; 2.8-fold emission increase
[14] = test system: self-complementary CC mismatched DNA 5′-C1G2G3A4C5T6C7C8G9-3′ (DNA, mismatch bulge abasic) CGGACTCCG; assay: 1H NMR, NOESY, TOCSY titration; conditions: 20 mM NaCl, 50 mM sodium phosphate; D2O, pH 6.1, 10 °C; shifts at A4 and C5, mismatched site
[15] = 50 mM NaCl, 2 mM Tris, pH 7.5, 0.1 mM complex titrated with 0.75 mM DNA

Compound: C1CCC(P(CP(C2CCCCC2)C2CCCCC2)C2CCCCC2)CC1.[Pt+2].[Pt+2].[c-]1ccccc1-c1cccc(-c2ccccn2)n1.[c-]1ccccc1-c1cccc(-c2ccccn2)n1
Kd [1, 15]: 7.0 ± 2.1 µM | binding ([2]; 50 mM NaCl, 2 mM Tris, pH 7.5, 0.1 mM complex titrated with 0.75 mM DNA, Kd stated negligible): no | binding ([3]; 50 mM NaCl, 2 mM Tris, pH 7.5, 5 μM 2, 50-fold emission increase at 0.5 equivalents): yes | binding ([4]; 50 mM NaCl, 2 mM Tris, pH 7.5, 5 μM 2, 8.2-fold emission increase at 0.5 equivalents): weak | binding [5]: no

Compound: CN1[C]N(C)C=C1.[Pt+2].[c-]1ccccc1-c1cccc(-c2ccccn2)n1
Kd [1, 15]: 66.2 ± 15.7 µM | Kd [2, 15]: 56.4 ± 13.6 µM | binding ([3]; 8.5-fold emission increase): yes | binding ([4]; 7.1-fold emission increase): yes

Compound: CCCCN1[C]N(Cc2ccccc2)C=C1.[Pt+2].[c-]1ccccc1-c1cccc(-c2ccccn2)n1
Kd [1, 15]: 51.5 ± 8.0 µM | binding [6]: yes | binding [7]: yes | binding [8]: yes | binding [9]: yes | binding [10]: weak | binding [11]: yes | binding ([3]; 50 mM NaCl, 2 mM Tris, pH 7.5, 5 μM 1c, 26.4-fold emission increase at 1 equivalent): yes | binding ([4]; 50 mM NaCl, 2 mM Tris, pH 7.5, 5 μM 1c, 2.6-fold emission increase at 1 equivalent): weak | binding [12]: yes | binding [13]: weak | binding [14]: yes

Kd ([1]; Na+ 50 mM (Tris 2 mM buffer)): 1.32 ± 0.24 µM | Kd ([2]; Na+ 50 mM (Tris 2 mM buffer)): 1.60 ± 0.28 µM | binding ([3]; 12.7-fold emission increase): yes | binding ([4]; 14.1-fold emission increase): yes
Compound: CC[n+]1c(-c2ccccc2)c2cc(N)ccc2c2ccc(N)cc21

From PMC4757794 (2016)
